Laboratory results taken from patent US10624346B2, “Herbicidal composition and method for controlling weeds” (Sumitomo Chemical Company, Limited, priority 2016, dated 2020).

Experiments:
[1] = system: Echinochloa crus-galli; experiment: Greenhouse pot test, post-emergence spray, herbicidal effect (Examples 202, 203); format: in vivo; conditions: sprayed at 2-3 leaf stage, one week
Excerpt: (§1) A plastic pot was filled with a commercially-available culture soil, and thereto inubie (common barnyardgrass; Echinochloa crus-galli) or akinoenokorogusa (giant foxtail; […] When the weeds grew to two to three leaf stage, a spray liquid of the compound X, a spray liquid of dicamba diglycolamine salt, or a spray liquid of the present composition was uniformly sprayed to the whole plants so that the application rate might be a predetermined value. The spray liquid of the present composition was prepared by mixing the spray liquid of the compound X with the spray liquid of dicamba diglycolamine salt. The spray liquid of the compound X was prepared by mixing a predetermined amount of the formulation X with deionized water. […] After applying the spray liquid, the plants were placed in a greenhouse for a week. […] A plastic pot was filled with a commercially-available culture soil, and thereto inubie (common barnyardgrass; Echinochloa crus-galli) or akinoenokorogusa (giant foxtail; […] The spray liquid of the compound X was prepared by mixing a predetermined amount of the formulation X with deionized water. […] After applying the spray liquid, the plants were placed in a greenhouse for a week.

[2] = system: Setaria faberi; experiment: as above; format: in vivo; conditions: sprayed at 2-3 leaf stage, one week
Excerpt: as §1

[3] = Compound X 5 g/ha alone, scale 0 (no effect) to 100 (completely dead)
[4] = Compound X 10 g/ha alone, scale 0-100
[5] = dicamba salt 50 g/ha alone, scale 0-100
[6] = dicamba salt 500 g/ha alone, scale 0-100

SMILES | Herbicidal effect on Echinochloa crus-galli (observed value) [1, 3] | Herbicidal effect on Echinochloa crus-galli (observed value) [1, 4] | Herbicidal effect on Setaria faberi (observed value) [2, 3] | Herbicidal effect on Setaria faberi (observed value) [2, 4] | Herbicidal effect on Echinochloa crus-galli (observed value) [1, 5] | Herbicidal effect on Echinochloa crus-galli (observed value) [1, 6] | Herbicidal effect on Setaria faberi (observed value) [2, 5] | Herbicidal effect on Setaria faberi (observed value) [2, 6]
CCOC(=O)COc1ncccc1Oc1cc(-n2c(=O)cc(C(F)(F)F)n(C)c2=O)c(F)cc1Cl [Compound X, ethyl [3-[2-chloro-4-fluoro-5-(1-methyl-6-trifluoromethyl-2,4-dioxo-1,2,3,4-tetrahydropyrimidin-3-yl)phenoxy]-2-pyridyloxy]acetate] | 20 | 35 | 30 | 45 |  |  |  | 
CN(CCCN)CCCN.COc1c(Cl)ccc(Cl)c1C(=O)O [dicamba BAPMA salt, dicamba N,N-bis(3-aminopropyl)methylamine salt] |  |  |  |  | 0 | 5 | 0 | 10
COc1c(Cl)ccc(Cl)c1C(=O)O.NCCOCCO [dicamba diglycolamine salt] |  |  |  |  | 0 | 10 | 0 | 0
